Calls of active or inactive are those of the source. The rule behind the calls is not given here.
Legend:
[1] = target: T1, GABA-A receptor; alpha-1/beta-3/gamma-2 (Homo sapiens, UniProt P14867+P18507+P28472); assay: Activity at GABAA alpha1beta3gamma2 receptor (unknown origin) expressed in HEK293T cells assessed as potentiation of GABA-mediated increase in channel current under holding potential at -80 mV at 1 uM by patch clamp assay; type: cell-based
T1 sequence (P14867 whole entry): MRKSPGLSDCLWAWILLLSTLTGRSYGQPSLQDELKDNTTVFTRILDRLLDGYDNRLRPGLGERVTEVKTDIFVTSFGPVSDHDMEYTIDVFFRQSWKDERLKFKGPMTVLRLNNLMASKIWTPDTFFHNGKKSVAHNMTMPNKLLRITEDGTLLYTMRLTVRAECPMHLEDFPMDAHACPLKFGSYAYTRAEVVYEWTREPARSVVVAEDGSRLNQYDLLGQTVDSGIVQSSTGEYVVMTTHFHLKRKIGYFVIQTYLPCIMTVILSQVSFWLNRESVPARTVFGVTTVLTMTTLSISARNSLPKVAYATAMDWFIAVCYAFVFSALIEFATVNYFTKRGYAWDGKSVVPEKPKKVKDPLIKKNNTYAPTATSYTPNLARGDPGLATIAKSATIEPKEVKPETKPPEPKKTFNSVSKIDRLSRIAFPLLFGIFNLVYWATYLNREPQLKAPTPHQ
T1 sequence (P18507 whole entry): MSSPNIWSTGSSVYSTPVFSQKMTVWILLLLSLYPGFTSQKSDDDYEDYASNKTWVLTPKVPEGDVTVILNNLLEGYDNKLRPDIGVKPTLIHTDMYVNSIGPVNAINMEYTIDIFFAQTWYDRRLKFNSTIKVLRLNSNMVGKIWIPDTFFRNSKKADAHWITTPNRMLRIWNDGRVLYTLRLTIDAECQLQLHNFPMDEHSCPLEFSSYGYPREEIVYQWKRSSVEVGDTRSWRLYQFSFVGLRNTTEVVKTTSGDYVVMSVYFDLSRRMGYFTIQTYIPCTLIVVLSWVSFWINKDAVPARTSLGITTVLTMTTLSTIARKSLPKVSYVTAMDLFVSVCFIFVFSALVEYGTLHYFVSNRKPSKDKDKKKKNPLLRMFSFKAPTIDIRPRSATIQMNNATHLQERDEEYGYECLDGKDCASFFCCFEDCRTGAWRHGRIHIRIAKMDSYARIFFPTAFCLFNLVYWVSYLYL
T1 sequence (P28472 whole entry): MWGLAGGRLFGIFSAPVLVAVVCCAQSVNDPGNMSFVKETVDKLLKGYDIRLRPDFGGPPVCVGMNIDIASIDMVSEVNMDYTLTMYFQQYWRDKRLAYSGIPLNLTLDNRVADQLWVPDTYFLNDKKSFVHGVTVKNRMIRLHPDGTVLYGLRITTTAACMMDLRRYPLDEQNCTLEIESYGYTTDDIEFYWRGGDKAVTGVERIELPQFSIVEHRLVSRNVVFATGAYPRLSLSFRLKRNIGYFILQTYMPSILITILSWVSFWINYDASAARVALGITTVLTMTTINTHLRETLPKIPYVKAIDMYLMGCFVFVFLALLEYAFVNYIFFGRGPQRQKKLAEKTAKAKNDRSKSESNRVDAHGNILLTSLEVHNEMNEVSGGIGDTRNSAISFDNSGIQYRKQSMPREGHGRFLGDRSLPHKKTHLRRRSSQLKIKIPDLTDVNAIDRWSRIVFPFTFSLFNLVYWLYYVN

[2] = system: Blood; assay: Cmax in mouse blood assessed as (S)-7-Methoxy-N-methyl-9-oxo-11,12,13,13a-tetrahydro-9H-benzo[e]imidazo[5,1-c]pyrrolo[1,2-a][1,4]diazepine-1-carboxamide at 5 mg/kg, ip by LC/MS/MS analysis; type: ADME, organism-based; design: dose 5 mg/kg, route intraperitoneal; conditions: in vivo
[3] = species: Cavia porcellus; assay: Inhibition of substance P-induced smooth muscle contractile force in guinea pig tracheal rings at 16 uM after 1 hr; type: functional
[4] = AUC (0 to t) in mouse blood at 5 mg/kg, ip by LC/MS/MS analysis; type: ADME, organism-based
[5] = Tmax in mouse lung at 5 mg/kg, ip by LC/MS/MS analysis; type: ADME, organism-based
[6] = Half life in human liver microsomes at 10 uM by LC-MS/MS analysis; type: ADME, microsome
[7] = system: Blood; assay: AUC (0 to t) in mouse blood assessed as (S)-7-Methoxy-N-methyl-9-oxo-11,12,13,13a-tetrahydro-9H-benzo[e]imidazo[5,1-c]pyrrolo[1,2-a][1,4]diazepine-1-carboxamide at 5 mg/kg, ip by LC/MS/MS analysis; type: ADME, organism-based; conditions: in vivo
[8] = system: Brain; assay: AUC (0 to t) in mouse brain at 5 mg/kg, ip by LC/MS/MS analysis; type: ADME, organism-based; conditions: in vivo

Structure (SMILES): COc1ccc2c(c1)C(=O)N1CCC[C@H]1c1c(C(=O)N(C)C)ncn1-2
- Activity [1]: 161 to 179%
- Cmax [2]: 1176 ng/g
- inhibition [3]: Active
- AUC(0-t) [4]: 103 ng·h/mL
- Tmax [5]: 3 min
- half-life at 10 µM [6]: 705 min
- AUCt [7]: 64675 ng·min/mL
- AUCt [8]: 2701 ng·min/g

— ChEMBL document CHEMBL3992505, “Optimization of substituted imidazobenzodiazepines as novel asthma treatments” (Eur J Med Chem, 2017)
